Results published in ChEMBL document CHEMBL5126517, “Structure-Activity Relationship in the Leucettine Family of Kinase Inhibitors” (J Med Chem, 2022).

What was measured:
HT-22 [1] = assay: Neuroprotective activity against glutamate-induced cell death in mouse HT-22 cells treated for 24 hrs by MTS assay; format: functional, cell-based; settings: HT-22, 24 h
[2] = molecular target: T1, Dual specificity tyrosine-phosphorylation-regulated kinase 1A (Homo sapiens, UniProt Q13627); assay: Inhibition of DYRK1A in human SH-SY5Y overexpressing Tau4R cells assessed as phosphorylated Tau Thr212 residue level at 10 uM incubated for 6 hrs by western blot analysis relative to control; format: cell-based
Cannabinoid receptor 1 [3] = molecular target: T2, Cannabinoid receptor 1 (Homo sapiens, UniProt P21554); assay: Antagonist activity at CP-55940-activated CB1 receptor (unknown origin) at 10 uM by beta-arrestin assay relative to control; format: functional; parameters: scale not given: the % may be the effect or the level left
T2 sequence (P21554 whole entry): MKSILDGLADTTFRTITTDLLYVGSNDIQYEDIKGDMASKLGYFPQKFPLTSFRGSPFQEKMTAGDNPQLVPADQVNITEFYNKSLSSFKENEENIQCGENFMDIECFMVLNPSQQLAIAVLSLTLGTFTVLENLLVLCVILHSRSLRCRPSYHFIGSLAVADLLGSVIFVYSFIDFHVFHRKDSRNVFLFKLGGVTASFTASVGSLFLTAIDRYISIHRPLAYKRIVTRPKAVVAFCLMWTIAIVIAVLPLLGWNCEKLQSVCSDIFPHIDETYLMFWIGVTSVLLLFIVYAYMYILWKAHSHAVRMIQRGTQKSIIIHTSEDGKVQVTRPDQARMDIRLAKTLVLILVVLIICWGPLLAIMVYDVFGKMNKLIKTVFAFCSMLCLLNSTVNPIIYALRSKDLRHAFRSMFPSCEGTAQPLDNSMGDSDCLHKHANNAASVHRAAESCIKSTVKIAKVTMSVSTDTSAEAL

[4] = Neurotoxicity against mouse HT-22 cells assessed as cell survival at 20 uM treated for 24 hrs by MTS assay; format: toxicity, cell-based; settings: ht-22, 24 h
U2OS = assay: Induction of PI3K/mTor-dependent autophagy in human U2OS cells assessed as number of LC3 foci per cell at 10 uM measured after 4 hrs; format: cell-based; settings: filed as activator
[5] = molecular target: Dual specificity tyrosine-phosphorylation-regulated kinase 1B (Homo sapiens, UniProt Q9Y463)
Chain of Dual specificity tyrosine-phosphorylation-regulated kinase 1B (Q9Y463 whole entry, the tested form may be a part): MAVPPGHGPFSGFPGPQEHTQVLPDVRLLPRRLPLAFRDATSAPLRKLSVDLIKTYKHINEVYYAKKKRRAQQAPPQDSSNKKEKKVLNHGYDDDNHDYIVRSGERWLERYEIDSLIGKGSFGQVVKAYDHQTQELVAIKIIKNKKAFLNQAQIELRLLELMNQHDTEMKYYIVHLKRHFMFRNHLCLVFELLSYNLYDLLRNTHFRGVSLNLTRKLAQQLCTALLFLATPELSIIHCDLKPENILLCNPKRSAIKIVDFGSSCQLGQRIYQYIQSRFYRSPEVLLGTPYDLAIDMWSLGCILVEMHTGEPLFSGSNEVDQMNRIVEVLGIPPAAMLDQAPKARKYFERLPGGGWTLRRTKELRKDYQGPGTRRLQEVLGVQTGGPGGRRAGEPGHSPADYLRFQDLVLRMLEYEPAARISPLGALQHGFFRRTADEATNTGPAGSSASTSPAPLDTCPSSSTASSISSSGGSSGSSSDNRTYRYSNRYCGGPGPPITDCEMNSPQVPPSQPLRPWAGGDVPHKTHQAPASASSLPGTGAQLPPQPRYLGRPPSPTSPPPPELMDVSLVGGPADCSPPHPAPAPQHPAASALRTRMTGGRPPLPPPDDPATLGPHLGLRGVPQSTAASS

[6] = molecular target: Dual specificity protein kinase CLK4 (Mus musculus, UniProt O35493); assay: Inhibition of GST-fused mouse recombinant CLK4 expressed in Escherichia coli using GRSRSRSRSRSR peptide as substrate incubated for 30 mins in presence of ATP by scintillation counting method
Chain of Dual specificity protein kinase CLK4 (O35493 whole entry, the tested form may be a part): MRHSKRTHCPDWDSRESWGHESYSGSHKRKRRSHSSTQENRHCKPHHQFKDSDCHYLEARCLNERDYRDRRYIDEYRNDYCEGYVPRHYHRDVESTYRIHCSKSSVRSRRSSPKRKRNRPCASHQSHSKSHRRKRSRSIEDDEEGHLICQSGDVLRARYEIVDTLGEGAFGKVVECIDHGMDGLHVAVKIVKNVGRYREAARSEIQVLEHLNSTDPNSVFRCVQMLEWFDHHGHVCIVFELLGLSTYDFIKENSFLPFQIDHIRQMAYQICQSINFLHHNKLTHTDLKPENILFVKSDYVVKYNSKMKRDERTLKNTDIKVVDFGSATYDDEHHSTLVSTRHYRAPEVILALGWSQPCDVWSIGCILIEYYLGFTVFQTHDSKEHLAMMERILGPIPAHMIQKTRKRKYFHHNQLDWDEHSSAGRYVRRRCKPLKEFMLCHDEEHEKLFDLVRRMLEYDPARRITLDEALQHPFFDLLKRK

[7] = molecular target: Dual specificity protein kinase CLK2 (Mus musculus, UniProt O35491); assay: Inhibition of mouse recombinant GST-fused CLK2 expressed in Escherichia coli using GRSRSRSRSRSR peptide as substrate incubated for 30 mins in presence of ATP by scintillation counting method
Chain of Dual specificity protein kinase CLK2 (O35491 whole entry, the tested form may be a part): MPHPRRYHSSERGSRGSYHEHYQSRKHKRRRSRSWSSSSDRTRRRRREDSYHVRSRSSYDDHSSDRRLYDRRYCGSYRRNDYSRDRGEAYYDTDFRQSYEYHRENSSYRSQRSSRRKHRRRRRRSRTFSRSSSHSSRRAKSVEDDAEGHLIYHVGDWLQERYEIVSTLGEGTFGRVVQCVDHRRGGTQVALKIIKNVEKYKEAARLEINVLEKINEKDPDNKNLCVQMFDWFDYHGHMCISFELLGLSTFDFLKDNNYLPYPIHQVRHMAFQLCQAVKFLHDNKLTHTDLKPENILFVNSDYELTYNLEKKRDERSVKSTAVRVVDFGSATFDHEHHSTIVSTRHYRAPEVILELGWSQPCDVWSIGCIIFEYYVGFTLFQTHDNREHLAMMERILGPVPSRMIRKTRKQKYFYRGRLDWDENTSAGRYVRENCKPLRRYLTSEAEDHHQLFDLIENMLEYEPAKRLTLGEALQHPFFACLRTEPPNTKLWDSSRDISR

[8] = molecular target: Dual specificity protein kinase CLK1 (Mus musculus, UniProt P22518); assay: Inhibition of GST-fused mouse recombinant CLK1 expressed in Escherichia coli using GRSRSRSRSRSR peptide as substrate incubated for 30 mins in presence of ATP by scintillation counting method
Chain of Dual specificity protein kinase CLK1 (P22518 whole entry, the tested form may be a part): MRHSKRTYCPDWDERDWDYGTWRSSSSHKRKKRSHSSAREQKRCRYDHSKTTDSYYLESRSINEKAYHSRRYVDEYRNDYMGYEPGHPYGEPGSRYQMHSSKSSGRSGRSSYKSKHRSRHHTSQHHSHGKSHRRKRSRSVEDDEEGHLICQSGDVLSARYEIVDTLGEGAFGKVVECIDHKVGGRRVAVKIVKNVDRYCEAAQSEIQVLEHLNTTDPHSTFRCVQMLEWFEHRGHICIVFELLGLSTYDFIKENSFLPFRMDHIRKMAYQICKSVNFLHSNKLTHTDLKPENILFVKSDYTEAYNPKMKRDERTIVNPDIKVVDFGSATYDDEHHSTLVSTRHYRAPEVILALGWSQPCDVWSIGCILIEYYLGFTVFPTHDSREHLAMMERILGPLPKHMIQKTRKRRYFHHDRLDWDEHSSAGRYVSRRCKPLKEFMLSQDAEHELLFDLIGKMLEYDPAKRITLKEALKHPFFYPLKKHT

[9] = molecular target: T1, Dual specificity tyrosine-phosphorylation-regulated kinase 1A; assay: Inhibition of GST-fused human recombinant DYRK1A expressed in Escherichia coli using GRSRSRSRSRSR peptide as substrate incubated for 30 mins in presence of ATP by scintillation counting method
[10] = molecular target: T3, Dual specificity tyrosine-phosphorylation-regulated kinase 2 (Homo sapiens, UniProt Q92630); assay: Inhibition of GST-fused human recombinant DYRK2 expressed in Escherichia coli using GRSRSRSRSRSR peptide as substrate incubated for 30 mins in presence of ATP by scintillation counting method
T3 sequence (Q92630 whole entry): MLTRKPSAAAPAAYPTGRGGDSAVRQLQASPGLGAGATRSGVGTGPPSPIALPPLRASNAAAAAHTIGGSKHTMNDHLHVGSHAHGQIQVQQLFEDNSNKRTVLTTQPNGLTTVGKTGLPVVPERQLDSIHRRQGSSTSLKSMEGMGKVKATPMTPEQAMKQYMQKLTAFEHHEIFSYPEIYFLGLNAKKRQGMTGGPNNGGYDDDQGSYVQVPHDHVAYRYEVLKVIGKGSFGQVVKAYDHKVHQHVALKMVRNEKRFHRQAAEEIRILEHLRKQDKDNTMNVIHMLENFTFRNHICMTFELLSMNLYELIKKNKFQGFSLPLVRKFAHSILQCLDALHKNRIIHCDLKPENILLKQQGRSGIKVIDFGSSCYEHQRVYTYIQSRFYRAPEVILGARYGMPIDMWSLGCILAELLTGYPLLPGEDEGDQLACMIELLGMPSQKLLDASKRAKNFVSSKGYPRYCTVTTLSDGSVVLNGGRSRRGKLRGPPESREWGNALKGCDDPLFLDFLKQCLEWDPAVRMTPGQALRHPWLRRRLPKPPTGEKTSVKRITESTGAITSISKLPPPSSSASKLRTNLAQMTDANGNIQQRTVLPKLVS

Casein kinase 2 = Casein kinase 2 (Homo sapiens, UniProt P67870+P68400+P19784+Q8NEV1); assay: Inhibition of human recombinant CK2 using RRRDDDSDDD peptide as substrate incubated for 30 mins in presence of ATP by scintillation counting method; format: protein assay
[11] = molecular target: Serine/threonine-protein kinase pim-1 (Homo sapiens, UniProt P11309); assay: Inhibition of human recombinant Pim1 expressed in Escherichia coli using histone H1 as substrate incubated for 30 mins in presence of ATP by scintillation counting method
Chain of Serine/threonine-protein kinase pim-1 (P11309 whole entry, the tested form may be a part): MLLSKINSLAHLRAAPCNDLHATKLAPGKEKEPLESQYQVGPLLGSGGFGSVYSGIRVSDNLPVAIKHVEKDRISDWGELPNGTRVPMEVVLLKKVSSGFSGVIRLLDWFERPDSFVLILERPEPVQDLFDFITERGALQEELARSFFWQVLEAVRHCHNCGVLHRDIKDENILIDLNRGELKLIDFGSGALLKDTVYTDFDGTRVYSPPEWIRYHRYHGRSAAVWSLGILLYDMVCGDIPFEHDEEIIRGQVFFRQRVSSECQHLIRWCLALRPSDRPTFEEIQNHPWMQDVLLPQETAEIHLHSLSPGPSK

[12] = molecular target: Dual specificity protein kinase CLK3 (Mus musculus, UniProt O35492); assay: Inhibition of GST-fused mouse recombinant CLK3 expressed in Escherichia coli using GRSRSRSRSRSR peptide as substrate incubated for 30 mins in presence of ATP by scintillation counting method
Chain of Dual specificity protein kinase CLK3 (O35492 whole entry, the tested form may be a part): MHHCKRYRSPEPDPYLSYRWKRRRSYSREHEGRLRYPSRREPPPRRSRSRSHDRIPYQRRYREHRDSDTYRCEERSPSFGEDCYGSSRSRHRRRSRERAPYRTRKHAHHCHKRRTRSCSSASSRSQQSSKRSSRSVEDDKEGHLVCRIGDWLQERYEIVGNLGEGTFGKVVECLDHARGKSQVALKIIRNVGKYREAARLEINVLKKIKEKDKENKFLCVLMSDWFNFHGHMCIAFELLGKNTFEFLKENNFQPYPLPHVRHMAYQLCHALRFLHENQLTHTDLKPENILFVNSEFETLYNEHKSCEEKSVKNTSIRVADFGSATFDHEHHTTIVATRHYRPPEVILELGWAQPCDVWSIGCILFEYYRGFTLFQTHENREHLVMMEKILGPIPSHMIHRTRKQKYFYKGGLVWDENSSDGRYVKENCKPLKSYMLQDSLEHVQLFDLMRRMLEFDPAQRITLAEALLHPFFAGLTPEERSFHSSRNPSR

[13] = molecular target: T4, Dual specificity tyrosine-phosphorylation-regulated kinase 3 (Homo sapiens, UniProt O43781); assay: Inhibition of GST-fused human recombinant DYRK3 expressed in Escherichia coli using GRSRSRSRSRSR peptide as substrate incubated for 30 mins in presence of ATP by scintillation counting method
T4 sequence (O43781 whole entry): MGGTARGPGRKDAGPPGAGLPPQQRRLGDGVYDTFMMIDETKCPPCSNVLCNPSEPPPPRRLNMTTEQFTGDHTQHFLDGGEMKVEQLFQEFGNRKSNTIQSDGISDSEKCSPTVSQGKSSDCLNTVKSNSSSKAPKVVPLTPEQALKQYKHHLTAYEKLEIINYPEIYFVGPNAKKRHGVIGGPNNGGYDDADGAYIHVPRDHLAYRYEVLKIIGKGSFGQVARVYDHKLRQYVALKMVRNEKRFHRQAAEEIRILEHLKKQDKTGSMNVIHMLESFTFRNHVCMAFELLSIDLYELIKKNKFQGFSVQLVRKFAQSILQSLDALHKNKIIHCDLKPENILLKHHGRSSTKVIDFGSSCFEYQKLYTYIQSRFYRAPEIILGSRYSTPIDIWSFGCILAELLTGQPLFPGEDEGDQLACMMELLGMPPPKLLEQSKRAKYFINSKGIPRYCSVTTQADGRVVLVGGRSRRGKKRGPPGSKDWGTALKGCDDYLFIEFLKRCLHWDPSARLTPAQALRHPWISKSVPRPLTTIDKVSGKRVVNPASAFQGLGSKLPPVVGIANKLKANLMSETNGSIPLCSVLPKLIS

[14] = molecular target: Glycogen synthase kinase-3 (Sus scrofa, UniProt B2LUN4+I6LNT8); assay: Inhibition of porcine brain GSK-3alpha/beta using YRRAAVPPSPSLSRHSSPHQpSEDEEE as substrate incubated for 30 mins in presence of ATP by scintillation counting method; format: tissue-based
HT-22 [15] = assay: Modulation of CLK1 pre-mRNA splicing in mouse HT-22 cells assessed as inclusion of CLK1 exon 4 by measuring change in threshold cycle at 10 uM measured after 4 hrs by real time PCR analysis; format: cell-based; settings: filed as modulator
Cannabinoid receptor 1 [16] = molecular target: T2, Cannabinoid receptor 1; assay: […] allosteric modulation of CB1 receptor (unknown origin) expressed in HEK293 cell membrane assessed as inhibition of CP-55940-induced [35S]-GTPgammaS binding at 10 uM in presence of GDP by liquid scintillation counting method; format: functional, cell membranes; settings: DDE = dose-dependent effect
Cannabinoid receptor 1 [17] = molecular target: T2, Cannabinoid receptor 1; assay: Antagonist activity at CP-55940-activated CB1 receptor (unknown origin) by beta-arrestin assay; format: functional
Cannabinoid receptor 1 [18] = molecular target: T2, Cannabinoid receptor 1; assay: Displacement of [3H]-CP55940 from CB1 receptor (unknown origin) expressed in HEK293 cell membrane assessed as dissociation constant at 10 uM by liquid scintillation counting method; format: cell membranes; settings: filed as modulator
[19] = Neurotoxicity against mouse HT-22 cells assessed as cell survival treated for 24 hrs by MTS assay; format: toxicity, cell-based

Structure (SMILES)	EC50 (HT-22 [1]) [nM]	inhibition [2] [%]	Activity (Cannabinoid receptor 1 [3]; filed as antagonist) [%]	Activity [4]	Activity (U2OS)	IC50 [5] [nM]	IC50 [6] [nM]	Activity (Cannabinoid receptor 1 [3]) [%]	IC50 [7] [nM]	IC50 [8] [nM]	IC50 [9] [nM]	IC50 [10] [nM]	IC50 [11] [nM]	IC50 [12] [nM]	IC50 [13] [nM]	IC50 [14] [nM]	deltaCT (HT-22 [15])	IC50 (Cannabinoid receptor 1 [17]) [nM]	other results
CCCCOc1ccc(/C=C2\N=C(Nc3ccccc3)NC2=O)cc1OC	2450	-8	54.3	Non-Toxic	7.6														
O=C1NC(Nc2ccc(-c3ccccc3)cc2)=N/C1=C\c1ccc2c(c1)OCO2	> 20000	-5.1		Non-Toxic	6.8	> 10000	5200	36.8	> 10000	> 10000	8100	4200							
CCNC1=N/C(=C\c2ccc3c(c2)OCO3)C(=O)N1		-6		Non-Toxic	5.6	480	60	-40.4	380	65	140	190	1200	2300	470	2400	2.64		IC50 (Casein kinase 2): 410 nM
O=C1NC(Nc2ccc(N3CCCCC3)cc2)=N/C1=C\c1ccc2c(c1)OCO2	660		81.7	Non-Toxic	11.4	2100	1500		> 10000	4200	700	230			> 10000	> 10000		91.3	Activity (Cannabinoid receptor 1 [16]): Dde; Kb (Cannabinoid receptor 1 [18]): 3300 nM
CN1C(=O)/C(=C/c2ccc3c(c2)OCO3)N=C1N [LEUCETTAMINE B]				Non-Toxic	4.3			9.5	940	140		430	> 10000	6000	1300	5000	1.14	> 10000	
O=C1NC(Nc2ccccc2)=N/C1=C\c1cccc(F)c1	3500		79.5		5.9						> 10000		> 10000					916	IC50 at 24 h [19]: > 20000 nM
CCCSC1=N/C(=C\c2ccc3c(c2)OCO3)C(=O)N1		-2.4		Non-Toxic	7.3	90	27	-2.6	110	34	40	37	950	3100	510	1400	2.48		EC50 at 24 h [19]: > 20000 nM; IC50 (Casein kinase 2): 1700 nM
CCCNC1=N/C(=C\c2ccc3c(c2)OCO3)C(=O)N1CCC		-1.5		Non-Toxic	5	> 10000	2300	-13.4	≥ 10000	3000	> 10000	> 10000		> 10000	> 10000	> 10000	-0.32		
O=C1NC(Nc2ccccc2)=N/C1=C\c1ccc2c(c1)OCCCO2	12500		89.3	Non-Toxic	5.6	> 10000	> 10000			> 10000		> 10000	> 10000						Activity (Cannabinoid receptor 1 [16]): Dde; Kb (Cannabinoid receptor 1 [18]): 1200 nM
CCCCCCc1ccc(NC2=N/C(=C\c3ccc(O)c(OC)c3)C(=O)N2)cc1	270		48.1		7.6	≥ 10000	> 10000			> 10000	≥ 10000	≥ 10000	> 10000		> 10000			2000	EC50 at 24 h [19]: > 20000 nM
